Measurements as given in US20060084599A1, “Compositions, methods and kits relating to notch signaling” (Maine Medical Center, priority 2003, published 2006).

Columns and labels:
[1] = test system: NIH 3T3 stable transfectants; assay: FGF1 release in stable NIH 3T3 cell transfectants (Example 1); format: cell-based, murine; conditions: sJ1 stable transfectants transduced with FGF1 adenovirus, 37° C.
Procedure: Adenovirus vector expressing lacZ, FGF1, caN1, dnN1, caN2 or dnN2 was prepared as described (Hardy et al., 1997, J. Virol. 71: 1842-1849) at a titer of approximately 10^12 viral particles/ml. For adenoviral transduction, NIH 3T3 stable transfectants were incubated in serum-free medium with approximately […] viral particles/cell in the presence of poly-D-lysine hydrobromide (Sigma) (5×10^3 molecules/viral particle) for two hours at 37° C., after which the adenovirus-containing media was removed and replaced with serum-containing medium (10% BCS) for an additional 24 hours. The transduced cells were harvested by trypsin digestion and seeded for the heat shock experiments as previously described (Jackson et al., 1992, Proc. Natl. Acad. Sci. USA 89: 10691-10695). After heat shock, the conditioned media from cells exposed to either 37° C. (normal conditions) or 42° C. (heat shock conditions) were treated with 0.1% DTT for 2 hours at 37° C., adsorbed to heparin-Sepharose and eluted from the column with 1.5 M NaCl. The eluants were resolved by 15% (w/v) SDS-PAGE and evaluated by FGF1 immunoblot analysis as described (Jackson et al., 1992, Proc. Natl. Acad. Sci. USA 89: 10691-10695).

[2] = target: T1, Delta1 (Homo sapiens, UniProt O00548); assay: Thrombin treatment of in vitro translated Delta1; format: biochemical
T1 construct: made in house; host or cells: cell-free in vitro translation (system not described for Delta1)

[3] = test system: PAR1 null cells; assay: FGF1 release from PAR1 null cells; format: cell-based, mouse; conditions: 10 μg/ml α-thrombin, 5 and 60 minutes
Procedure: Murine NIH 3T3 (ATCC), Swiss 3T3 (ATCC), sJ1 NIH 3T3 cell transfectants were all disclosed elsewhere herein (e.g., Example 1), FGF1 NIH 3T3 transfectants (Jackson et al., 1992, Proc. Natl. Acad. Sci. U.S.A. 89:10691-10695) and PAR1 null mouse embryonic fibroblasts (a gift from Dr. S. Coughlin) were grown in Dulbecco's modified Eagle's medium (DMEM; Life Technologies) supplemented with 10% bovine calf serum (BCS; Hyclone) and 1× antibiotic/antimycotic (Life Technologies). All stable NIH 3T3 cell transfectant cultures were further supplemented with 0.4 g/L Geneticin (GIBCO). […]
FGF1R136K NIH 3T3 cell transfectants or adenovirally-transduced NIH 3T3 cells were washed with DMEM containing 5 units/ml of heparin (Sigma) and stimulated with either 10 μg/ml α-thrombin (a gift from Dr. J. Fenton) or 5 μM TRAP (Sigma) at 37° C. for different periods of time. […] Cell viability was assessed by measuring lactate dehydrogenase activity in the conditioned medium after filtration as disclosed previously elsewhere herein (published as Mandinova et al., 2003, J. Cell Sci. 116:2687-2696), and total cell lysates were obtained and processed for immunoblot analysis as described (Landriscina et al., 2001, J. Biol. Chem. 276:22544-22552). […]

T1 sequence (O00548 18-723): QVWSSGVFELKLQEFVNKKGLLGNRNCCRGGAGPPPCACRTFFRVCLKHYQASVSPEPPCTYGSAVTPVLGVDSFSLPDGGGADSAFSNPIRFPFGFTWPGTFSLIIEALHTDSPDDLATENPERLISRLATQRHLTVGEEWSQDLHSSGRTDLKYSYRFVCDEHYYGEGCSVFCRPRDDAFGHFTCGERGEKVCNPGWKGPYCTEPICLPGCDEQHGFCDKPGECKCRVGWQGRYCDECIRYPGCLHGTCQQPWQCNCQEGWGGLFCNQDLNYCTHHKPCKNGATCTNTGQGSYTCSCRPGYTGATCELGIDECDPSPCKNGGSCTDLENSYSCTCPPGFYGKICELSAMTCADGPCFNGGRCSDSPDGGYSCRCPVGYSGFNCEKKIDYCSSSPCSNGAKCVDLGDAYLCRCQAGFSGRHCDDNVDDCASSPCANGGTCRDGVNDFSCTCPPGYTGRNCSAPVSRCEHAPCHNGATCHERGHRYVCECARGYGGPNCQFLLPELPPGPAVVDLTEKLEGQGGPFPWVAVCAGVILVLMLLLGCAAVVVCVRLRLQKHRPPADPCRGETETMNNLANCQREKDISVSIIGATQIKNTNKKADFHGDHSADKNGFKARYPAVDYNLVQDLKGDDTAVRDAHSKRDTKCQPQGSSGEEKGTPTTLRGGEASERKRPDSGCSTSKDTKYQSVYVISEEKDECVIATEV

Substance | FGF1 release under normal growth conditions [1] | proteolytic modification of Delta1 translation product [2] | export of FGF1R136K from PAR1 null cells [3]
sJ1: Soluble Jagged1, amino acid residues about 1 to 1067 (SEQ ID NO:3) of full-length human Jagged1 | significant release of FGF1 at 37 °C |  | 
thrombin |  | unable to proteolytically modify the in vitro translation product of the Delta1 transcript | unable to induce the export of the FGF1R136K mutant
